In patent US20250074943A1, “DLL3 BINDING PEPTIDES AND USES THEREOF” (AMGEN INC., priority 2021, published 2025):
Bridge positions count the residues as written; N and C are the ends. Peptide text beside a SMILES is read from it. * marks the point of attachment. X13 = NCCCOCCOCCOCCCNC(=O)CCC(=O)NCCCOCCOCCOCCCNC(=O)CCC(=O)NCCCC[C@H](NC(=O)CCC(=O)NCCCOCCOCCOCCCN*)C(N)=O; X11 = NCCCC[C@H](NC(=O)CCC(=O)NCCCOCCOCCOCCCN*)C(N)=O

Assays:
[1] = biological target: T1, cell-surface hDLL3 (CHO cells) (Homo sapiens, UniProt Q9NYJ7); test: Flow cytometry binding of fluorescence labelled peptides; type: cell-based; conditions: 100 nM AF647-labelled peptide; FIG. 1
T1 construct: expressed in transfected cells; host or cells: CHO (CHO-huDLL3)
T1 sequence (Q9NYJ7 27-618): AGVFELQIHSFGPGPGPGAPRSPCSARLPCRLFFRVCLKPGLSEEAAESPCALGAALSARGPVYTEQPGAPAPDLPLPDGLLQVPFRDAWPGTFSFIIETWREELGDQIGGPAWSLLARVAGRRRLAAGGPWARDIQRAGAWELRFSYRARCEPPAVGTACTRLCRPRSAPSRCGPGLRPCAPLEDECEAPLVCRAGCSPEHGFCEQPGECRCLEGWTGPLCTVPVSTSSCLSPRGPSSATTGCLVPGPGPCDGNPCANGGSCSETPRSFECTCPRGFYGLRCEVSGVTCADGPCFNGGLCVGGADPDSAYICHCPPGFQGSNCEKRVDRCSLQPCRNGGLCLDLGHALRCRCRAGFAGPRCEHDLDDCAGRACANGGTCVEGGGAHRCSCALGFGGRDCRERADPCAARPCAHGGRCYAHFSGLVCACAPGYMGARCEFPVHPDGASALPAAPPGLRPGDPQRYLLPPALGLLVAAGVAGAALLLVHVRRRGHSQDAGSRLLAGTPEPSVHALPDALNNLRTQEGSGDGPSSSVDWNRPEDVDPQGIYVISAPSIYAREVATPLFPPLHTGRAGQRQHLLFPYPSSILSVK
Procedure: HEK293-huDLL3, CHO-huDLL3 and the corresponding parental cell lines were detached with EDTA 2.5 mM and re-suspended at 1.8×10^6 cells/ml in FACS buffer (1×PBS, 2% FBS), distributed at 500 μl per testing tube and pelleted 5 min at 1300 rpm in a Heraeus Multifuge X3R centrifuge. […] After 1 hour incubation at room temperature, cells were washed once with FACS buffer, centrifuged and re-suspended in FACS buffer/1% formaldehyde. Samples were acquired on a FACS ARIA flow cytometer (Becton Dickinson) and data analysed by FACS Express software.

[2] = biological target: T2, DLL3 (Homo sapiens, UniProt Q9NYJ7); test: Binding of peptides with linkers and/or fluorescent agent to DLL3 (BLI, SPR; Table 6)
T2 construct: The recombinant DLL3 ectodomain (rhDLL3-Fc) was biotinylated; Fc
T2 sequence (Q9NYJ7 27-492 limits assumed): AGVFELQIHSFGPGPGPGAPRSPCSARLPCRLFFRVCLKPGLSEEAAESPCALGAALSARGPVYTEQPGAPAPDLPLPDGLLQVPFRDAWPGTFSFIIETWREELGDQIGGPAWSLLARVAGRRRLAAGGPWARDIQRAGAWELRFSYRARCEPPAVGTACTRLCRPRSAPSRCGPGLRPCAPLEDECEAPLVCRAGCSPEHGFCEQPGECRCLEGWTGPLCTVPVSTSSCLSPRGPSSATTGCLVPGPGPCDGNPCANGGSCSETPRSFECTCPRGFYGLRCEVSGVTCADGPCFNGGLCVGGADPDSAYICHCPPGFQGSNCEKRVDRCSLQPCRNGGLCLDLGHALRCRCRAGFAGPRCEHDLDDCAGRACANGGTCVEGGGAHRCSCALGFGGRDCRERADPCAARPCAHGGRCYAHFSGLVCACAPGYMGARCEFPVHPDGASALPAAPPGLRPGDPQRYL
Procedure: Binding kinetic assays were performed using Bio-layer interferometry (BLI) technology. The recombinant DLL3 ectodomain (rhDLL3-Fc) was biotinylated using EZ-Link Sulfo-NHS-LC-LC-Biotin Kit according to the manufacturer's protocol (Pierce by Thermo Fisher Scientific). The recombinant protein was incubated with an excess of NHS-LC-LC Biotin ester, in a molar ratio of 1:3 (protein: biotin), at 25° C. for 90 min. The un-reacted biotin ester was removed by subsequent buffer exchange on 0.5 ml Zeba spin desalting columns 7K MWCO (Pierce by Thermo Fisher Scientific).
The off-rate screening of the peptides was done using a Biacore T200 instrument (Cytiva, Sweden). […] Peptides were diluted at 300 nM in PBS-P+1× buffer (Cytiva, Sweden) supplemented with 1% DMSO and 0.1% BSA, then injected over the ligand for five minutes at 30 μl/min, finally dissociation allowed for 1 h. Sensorgrams were analyzed by Biacore T200 Evaluation Software 3.0 (Cytiva, Sweden): specific binding was obtained by subtracting unspecific binding to naked biosensors and a zero analyte concentration made of binding assay buffer (double referencing). Kinetic parameters of koff were measured using a global fitting according to 1:1 Langmuir binding isotherm equation.

binding to cells expressing hDLL3 [1] | Kd [2] [nM] | RT [2] | SMILES
binding | 11.6 |  | CC(C)[C@H](NC(=O)[C@@H](NC(=O)[C@H](CCC(=O)O)NC(=O)[C@H](C)N)[C@@H](C)O)C(=O)N[C@@H](CCC(=O)O)C(=O)N[C@@H](Cc1ccccc1)C(=O)N[C@@H](Cc1c[nH]c2ccccc12)C(=O)NCC(=O)N[C@H]1CSSC[C@@H](C(=O)N[C@@H](Cc2c[nH]c3ccccc23)C(=O)N[C@@H](Cc2c[nH]c3ccccc23)C(=O)NCCCOCCOCCOCCCNC(=O)CCC(=O)N[C@@H](CCCCn2nnc3c2-c2ccccc2CN(C(=O)CCNC(=O)CCCCC[N+]2=C(/C=C/C=C/C=C4/N(CCCS(=O)(=O)O)c5ccc(S(=O)(=O)O)cc5C4(C)C)C(C)(CCCS(=O)(=O)O)c4cc(S(=O)(=O)[O-])ccc42)c2ccccc2-3)C(N)=O)NC(=O)[C@H]([C@@H](C)O)NC(=O)[C@H](CCC(=O)O)NC(=O)[C@H](CC(N)=O)NC(=O)CNC(=O)[C@H](Cc2c[nH]c3ccccc23)NC(=O)[C@H]([C@@H](C)O)NC(=O)CNC(=O)[C@H]([C@@H](C)O)NC1=O (stereo partly drawn) [PepSP1215]
 | 42 ± 8 | 198.9 ± 41.1 | CC(=O)N[C@@H](C)C(=O)N[C@@H](CCC(=O)O)C(=O)N[C@H](C(=O)N[C@H](C(=O)N[C@@H](CCC(=O)O)C(=O)N[C@@H](Cc1ccccc1)C(=O)N[C@@H](Cc1c[nH]c2ccccc12)C(=O)N[C@@H](Cc1c[nH]c2ccccc12)C(=O)N[C@H]1CSSC[C@@H](C(=O)N[C@H](C(=O)N[C@@H](Cc2c[nH]c3ccccc23)C(=O)NCC(=O)NCC(=O)NCCCOCCOCCOCCCNC(=O)CCC(=O)N[C@@H](CCCCNC(=O)CCC(=O)NCCCOCCOCCOCCCNC(=O)CCC(=O)NCCCOCCOCCOCCCN)C(N)=O)[C@@H](C)O)NC(=O)[C@H]([C@@H](C)O)NC(=O)[C@H](Cc2c[nH]c3ccccc23)NC(=O)[C@H](CC(N)=O)NC(=O)[C@H](CCC(=O)O)NC(=O)[C@H](CO)NC(=O)[C@H](CC(N)=O)NC(=O)CNC(=O)[C@H](CC(N)=O)NC1=O)C(C)C)[C@@H](C)O [PepSP1342] (Ac-AETVEFWWCNGNSENWTCTWGG-X13; disulfide 9-18 (inferred))
 | 29 ± 16 | 189.3 ± 73^ | CC(=O)N[C@@H](C)C(=O)N[C@@H](CCC(=O)O)C(=O)N[C@H](C(=O)N[C@H](C(=O)N[C@@H](CCC(=O)O)C(=O)N[C@@H](Cc1ccccc1)C(=O)N[C@@H](Cc1c[nH]c2ccccc12)C(=O)N[C@@H](Cc1c[nH]c2ccccc12)C(=O)N[C@H]1CSSC[C@@H](C(=O)N[C@H](C(=O)N[C@@H](Cc2c[nH]c3ccccc23)C(=O)NCC(=O)NCC(=O)NCCCOCCOCCOCCCNC(=O)CCC(=O)N[C@@H](CCCCN)C(N)=O)[C@@H](C)O)NC(=O)[C@H]([C@@H](C)O)NC(=O)[C@H](Cc2c[nH]c3ccccc23)NC(=O)[C@H](CC(N)=O)NC(=O)[C@H](CCC(=O)O)NC(=O)[C@H](CO)NC(=O)[C@H](CC(N)=O)NC(=O)CNC(=O)[C@H](CC(N)=O)NC1=O)C(C)C)[C@@H](C)O [PepSP1324] (Ac-AETVEFWWCNGNSENWTCTWGG-X11; disulfide 9-18 (inferred))
